Experimental data as given in the NIST ThermoML archive (doi:10.1021/je025606c).

Experiments:
[1] = Liquid; for kinematic viscosity: 101.33 kPa, Capillary tube (Ostwald / Ubbelohde) method; for mass density: 1000 kPa, Vibrating tube method
[2] = molar heat capacity at constant pressure; conditions: 1000 kPa, Liquid

CCCCOCCOCCOCCCC [5,8,11-trioxapentadecane]
Conditions | kinematic viscosity, [1] [m2/s] | mass density, [1] [kg/m3] | molar heat capacity at constant pressure, [2] [J/K/mol]
283.15 K | 3.36e-06 | 891.6 | –
293.15 K | 2.69e-06 | 883.2 | –
303.15 K | 2.21e-06 | 875 | –
312.57 K | – | – | 456.53
313.15 K | 1.86e-06 | 866.8 | –
322.47 K | – | – | 460.9
323.15 K | 1.59e-06 | 858.5 | –
332.37 K | – | – | 465.49
333.15 K | 1.38e-06 | 850.4 | –
342.27 K | – | – | 470.51
343.15 K | 1.22e-06 | 842.1 | –
352.18 K | – | – | 475.75
353.15 K | 1.08e-06 | 833.7 | –
362.08 K | – | – | 480.33
363.15 K | 9.68e-07 | 824.9 | –
371.98 K | – | – | 486.88
373.15 K | 8.72e-07 | 816.5 | –
381.88 K | – | – | 493.65
383.15 K | 7.95e-07 | 807.9 | –
391.78 K | – | – | 500.42
393.15 K | 7.28e-07 | 799.4 | –
401.68 K | – | – | 505.44
403.15 K | 6.7e-07 | 790.8 | –
411.58 K | – | – | 512.21
413.15 K | 6.21e-07 | 782.1 | –
421.48 K | – | – | 517.89
423.15 K | 5.78e-07 | 773.3 | –

CCOCCOCCOCC [diethylene glycol diethyl ether]
Conditions | kinematic viscosity, [1] [m2/s] | mass density, [1] [kg/m3] | molar heat capacity at constant pressure, [2] [J/K/mol]
283.15 K | 1.84e-06 | 917.4 | –
293.15 K | 1.5e-06 | 907.9 | –
303.15 K | 1.27e-06 | 898.4 | –
312.57 K | – | – | 349.11
313.15 K | 1.09e-06 | 889 | –
322.47 K | – | – | 351.22
323.15 K | 9.56e-07 | 879.5 | –
332.37 K | – | – | 353.33
333.15 K | 8.48e-07 | 870 | –
342.27 K | – | – | 355.44
343.15 K | 7.6e-07 | 860.2 | –
352.18 K | – | – | 358.68
353.15 K | 6.91e-07 | 850 | –
362.08 K | – | – | 360.79
363.15 K | 6.33e-07 | 840.2 | –
371.98 K | – | – | 364.85
373.15 K | 5.77e-07 | 830.3 | –
381.88 K | – | – | 368.9
383.15 K | 5.32e-07 | 820.4 | –
391.78 K | – | – | 372.15
393.15 K | 4.93e-07 | 810.3 | –
401.68 K | – | – | 377.01
403.15 K | 4.59e-07 | 800 | –
411.58 K | – | – | 380.75
413.15 K | 4.29e-07 | 789.7 | –
421.48 K | – | – | 384.8
423.15 K | 4.02e-07 | 779.2 | –
